Data reported in PubChem BioAssay (NCI).
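48-hour exposure; five concentrations; linearly interpolated endpoints. At the GI50, growth is halved. TGI is the concentration that stops growth completely.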

Experiments:
Assay in all cases: NCI tumour cell line growth inhibition, 48 h
[1] = system: MOLT-4 leukemia
[2] = system: UO-31 renal
[3] = system: HCC-2998 colon
[4] = system: ACHN renal
[5] = system: UACC-257 melanoma
[6] = system: HCT-116 colon
[7] = system: SNB-19 CNS
[8] = system: KM12 colon
[9] = system: NCI/ADR-RES ovarian
[10] = system: MDA-MB-231 breast

Structure (SMILES)	TGI [1] [µM]	TGI [2] [µM]	TGI [3] [µM]	TGI [4] [µM]	TGI [5] [µM]	TGI [6] [µM]	TGI [7] [µM]	TGI [8] [µM]	GI50 [3] [µM]	GI50 [4] [µM]	GI50 [5] [µM]	GI50 [6] [µM]	GI50 [7] [µM]	GI50 [8] [µM]	GI50 [9] [µM]	TGI [9] [µM]	GI50 [2] [µM]	GI50 [10] [µM]	TGI [10] [µM]	GI50 [1] [µM]
C/C(CC(=O)CCCC(=O)Nc1ccc(Cl)cc1Cl)=N/NC(=O)CC#N	> 100	> 100	> 100	> 100	> 100	> 100	> 100	> 100												
Cc1ccc(-c2csc(N(C(=O)N3CCN(c4cc5c(cc4F)c(=O)c(C(=O)O)cn5C4CC4)CC3)c3ccccc3)n2)cc1			> 100	> 100	> 100	> 100	> 60	> 100	0.537	0.278	0.372	0.333	0.383	0.371						
CCOC(=O)C1Cc2c(ccc(OC)c2OC)C(=O)C1N (stereo unspecified)	> 100	> 100	> 100	> 100	> 100	> 100	> 100	> 100												
CCOC(=O)C12CCCC1(O)N(NC(=O)c1cccc(Cl)c1)C(C)=C2C(=O)OC (stereo unspecified)	> 100	> 100	> 100	> 100	> 100	> 100	> 100	> 100												
C[C@]12CCC[C@H](OC=O)C1(O)C[C@H](C(=O)O)CC2 (stereo partly specified)	> 100	> 100	> 100	> 100	> 100	> 100	> 100	> 100												
C=C(C)C1CC=C(C(=O)O)CC1 (stereo unspecified)	> 5000	4030	2340	> 5000	3450	1500	4330	2140												
COC1=CC(=O)c2ccc(C(C)C)cc2C1(C)C1=NC(C)(C)CO1 (stereo unspecified)	> 100	> 100		> 100	> 100	> 100	> 100	> 100												
O=C1C(=O)c2cc([N+](=O)[O-])ccc2-c2ccccc21		2.86	3.18	2.96	3.13	2.82	3	3.23	1.77	1.6	1.7	1.43	1.6	1.79	1.66	3.33	1.45	1.64	3.15	
O=C1C2CC3C(CC2C(=O)[N]1[Sn]([c]1ccccc1)([c]1ccccc1)[c]1ccccc1)C1(Cl)C(Cl)=C(Cl)C3(Cl)C1(Cl)Cl (stereo unspecified)	0.546	0.212	0.281	0.243	0.324	0.183	0.344	0.29	0.122	0.112	0.144	0.0473	0.163	0.13			0.0743	0.127	0.37	0.0827
O=C(O)/C(Cl)=C(\Cl)Nc1cccc(C(F)(F)F)c1		> 100	> 100	> 100																
CCCCCCCCN(CCCCCCCC)C(=N)c1ccnc2ccccc12		2.29		2.78	3.35	2.55	3.17			1.37	1.75	1.24	1.55		1.15	2.5	0.953			
Cc1cc(N(CCC#N)CCC#N)ccc1/C=C1/CN(N2C(=O)/C(=C/c3ccc(N(CCC#N)CCC#N)cc3C)N=C2c2ccccc2)C(c2ccccc2)=N1	> 100	> 100	> 100	> 100	> 100	> 100	> 100	> 100												
O=S(=O)(NCCNc1cc(-c2cn(-c3ccccc3)nc2-c2cccc(O)c2)ccn1)c1ccc(C(F)(F)F)cc1	5.71	4.28	4.45		18.4	7.94	17.4	7.98	2.04		4.79	2.29	3.79	2.62	3.21	16.6	1.81	2.12	4.72	2.05
CC(=O)[CH-]C(=O)c1ccccc1.CC(=O)[CH-]C(=O)c1ccccc1.O=C([O-])C[O-].O=C([O-])C[O-].[Ti+4]	> 100	> 100	> 100	> 100	> 100	> 100	> 100	69.2	40.3	44.9	43.1	21.8	30.8	21.7			71.4			27.7
O=C(O)C1C2C=CC(O2)C1C(=O)Nc1ccccc1 (stereo unspecified)	> 100	> 100		> 100	> 100	> 100	> 100	> 100								> 100			> 100	
CN1C(=O)n2c(nc3ccccc32)C(N=[N+]=[N-])(N=[N+]=[N-])C1=O (stereo unspecified)	> 100	> 100	> 100	> 100	> 100	> 100	> 100	> 100												
Nc1ccccc1NC(=O)c1ccc(CSc2nc(N3CCOCC3)c3cccn3n2)cc1		3.61	7.41	> 100	4.54	> 100	> 100	> 100	2	0.863	0.549	0.379	2.67	1.14	0.445	> 100	0.412	0.806	11.7	
N=c1nc(N)c2cc3c(N)nc(=N)c3cc12	> 61	34.5	> 100	> 100	28.1	34.4	> 100	> 100											8.09	
CC(C#N)c1cn(S(=O)(=O)c2ccccc2)c2ccccc12 (stereo unspecified)	> 100	62.4	> 100	> 100	> 100	> 100	> 100	> 100												
Nn1c(CCCl)nc2c(Br)cc(Br)cc2c1=O	61.3	> 75.6	> 100	> 74.7	> 100	53	> 100	38.1												
CCC[CH2][Sn]1([CH2]CCC)[O]C(c2ccccn2)S(=O)(=O)[O]1 (stereo unspecified)	7.51	26.6	18.3	20	3.29	22.9	23.5	26	4.63	7.88	1.79	11	11.4	12.7			13.6			2.84

Structure (SMILES)	TGI [1] [µM]	TGI [2] [µM]	TGI [3] [µM]	TGI [4] [µM]	TGI [5] [µM]	TGI [6] [µM]	TGI [7] [µM]	TGI [8] [µM]	GI50 [3] [µM]	GI50 [4] [µM]	GI50 [5] [µM]	GI50 [6] [µM]	GI50 [7] [µM]	GI50 [8] [µM]	GI50 [9] [µM]	TGI [9] [µM]	GI50 [2] [µM]	GI50 [10] [µM]	TGI [10] [µM]	GI50 [1] [µM]
CCN1C(C)=NC2C(=O)c3ccccc3C(=O)C21 (stereo unspecified)	> 100	> 100	79.3	> 100	> 100	> 100	> 100													
COc1ccc2cc(C(=O)c3ccccc3C(=O)O)ccc2c1	> 100	> 100	> 100	> 100	> 100	> 100	> 100	> 100												
Oc1c(Br)cc(Br)cc1CN(Cc1cc(Br)cc(Br)c1O)C1CCCCC1	> 100	> 100		> 100	45.1	> 100	> 100	> 100								> 100			72.4	
CC1(C)CC23C(=O)N(c4ccccc4)C(=Nc4ccccc4)NC2=CC(C#N)=C(C#N)C3O1 (stereo unspecified)	> 100	> 100	> 100	> 100	> 100	> 100	> 100	> 100												
CCN1C(=O)N(CC)C2C1NN=c1s/c(=C3\C(=O)N(CCC(C)C)c4ccccc43)c(=O)n12 (stereo unspecified)	> 100		4.54	6.7	> 100	2.49	11.5	11.4	1.92	1.86	3.72	1.06	2.39	0.616				1.66	3.42	2.86
C=C1C(=O)O[C@@H]2[C@H]1CC[C@H](C)[C@]1(O)CCC(=O)[C@@]21C	> 10	4.76	> 10			> 10	> 10	> 10								> 10				
O=C1c2ccccc2C(=O)N1/N=C\c1ccc(Br)cc1	> 100	> 100	> 100	> 100	> 100	> 100	> 100	> 100	> 100	> 100	> 100	> 100	> 100	> 100			> 100			> 100
CC1=CC(=O)C(C)(C2=NC(C)(C)CO2)c2ccccc21 (stereo unspecified)	> 100	> 100		> 100	> 100	> 100	> 100	> 100												
CCCC(OCC)(OCC)OCC	> 100	> 100	> 100	> 100	> 100	> 100	> 100	> 100												
CC(=O)CC(=O)N(CCN(C(=O)CC(C)=O)c1ccccc1)c1ccccc1	> 100	> 100	> 100	> 100	> 100	> 100	> 100	> 100												
COc1cccc(/C=C(/C(=O)O)c2cc(OC)c(OC)c(OC)c2)c1	> 100	> 100		> 100	> 100	> 100	> 100	> 100												
CC1(C)CCC(=O)c2c(O)ccc(O)c21	> 100	> 100	> 100		81.9	> 100	> 100	> 100												
CSc1nc(NC2OCC(OC(C)=O)C(OC(C)=O)C2OC(C)=O)c(N=CC=Nc2c(NC3OCC(OC(C)=O)C(OC(C)=O)C3OC(C)=O)nc(SC)n(C)c2=O)c(=O)n1C (stereo unspecified)		> 100	> 100	> 100	> 100	> 100	> 100	> 100												
O=C(O)C(=O)Cc1ccc2c(c1)OCO2	> 100	> 100		> 100	> 100	> 100	> 100	> 100								> 100			> 100	
COc1ccc2[nH]c3c4c(c5cc(C(C)(C)C)ccc5c3c2c1)C(=O)N(c1ccccc1)C4=O	> 100	> 100	47.4		> 100	> 100	> 100	> 100												
Cc1cc(C)c(C(=O)O)c(N)c1O	> 100	> 100	> 100	> 100	> 100	> 100	> 100	> 100												
COc1cc(C(=O)C/C(CCC(=O)Nc2ccccc2[N+](=O)[O-])=N\NC(=O)C(N)=O)ccc1O	> 100	> 100		> 100	> 100	> 100	> 100	> 100												
CN1CCC23c4c5ccc(O)c4OC2C(=NN=C2CCC4(O)C6Cc7ccc(O)c8c7C4(CCN6C)C2O8)CCC3(O)C1C5 (stereo unspecified)	> 100	> 100	> 100	> 100	> 100		> 100	> 100												
OCCN1CCN(CCO)Cc2ccccc2OCCOc2ccccc2C1	> 100	> 100		> 100	> 100	> 100	> 100	> 100												
CC(C)(Cl)CCC1=C(Cl)C(=O)c2ccccc2C1=O	6.04	3.15		3.03	3.2	3.19	17.1	5.32		1.65	1.67	1.59	4.22	2.28	3.29	19.5	1.59	1.73	3.65	1.91
